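Cultured in 96-well plates, cells were exposed to test compound for 48 hours across five concentrations. The concentration for 50% growth inhibition is given as GI50.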 Active and inactive are the calls of the source. No stated cut-off is given here; in the data, active = GI50 up to about 1.1 µM and inactive = higher.
Experiments:
Assay in all cases: inhibition of tumour cell growth, NCI panel, 48 h
OVCAR-3 = tested on: OVCAR-3
SK-MEL-28 = tested on: SK-MEL-28
IGROV-1 = tested on: IGROV-1
HL-60 = tested on: HL-60
SF-268 = tested on: SF-268
NCI-H226 = tested on: NCI-H226
RXF 393 = tested on: RXF 393
LOX IMVI = tested on: LOX IMVI
HCT-15 = tested on: HCT-15
RPMI-8226 = tested on: RPMI-8226
HOP-92 = tested on: HOP-92
OVCAR-8 = tested on: OVCAR-8
HT-29 = tested on: HT-29
TK-10 = tested on: TK-10
786-0 = tested on: 786-0
SNB-19 = tested on: SNB-19
MDA-MB-231 = tested on: MDA-MB-231
NCI/ADR-RES = tested on: NCI/ADR-RES
MDA-MB-435 = tested on: MDA-MB-435
Hs-578T = tested on: Hs-578T

Row | Structure (SMILES) | GI50 (OVCAR-3) | GI50 (SK-MEL-28) | GI50 (IGROV-1) | GI50 (HL-60) | GI50 (SF-268) | GI50 (NCI-H226) | GI50 (RXF 393) | GI50 (LOX IMVI) | GI50 (HCT-15) | GI50 (RPMI-8226) | GI50 (HOP-92) | GI50 (OVCAR-8) | GI50 (HT-29) | GI50 (TK-10) | GI50 (786-0) | GI50 (SNB-19) | GI50 (MDA-MB-231) | GI50 (NCI/ADR-RES) | GI50 (MDA-MB-435) | GI50 (Hs-578T)
1 | N#Cc1cnsc1 | > 100 µM (inactive) | > 100 µM (inactive) | > 100 µM (inactive) | > 100 µM (inactive) | > 100 µM (inactive) | > 100 µM (inactive) | > 100 µM (inactive) | > 100 µM (inactive) | > 100 µM | > 100 µM (inactive) | > 100 µM (inactive) | > 100 µM (inactive) | > 100 µM (inactive) | > 100 µM (inactive) | > 100 µM (inactive) | – | – | – | – | –
2 | CCCCCCCCSC(SCCCCCCCC)=C1C(=O)N(c2ccccc2)N=C1C | 29.4 µM (inactive) | > 100 µM (inactive) | 43.1 µM (inactive) | 19.2 µM (inactive) | > 100 µM (inactive) | 64.4 µM (inactive) | 53.5 µM (inactive) | 17.7 µM (inactive) | 37.7 µM | 39.4 µM (inactive) | 31.8 µM (inactive) | 35.5 µM (inactive) | 45.8 µM (inactive) | 42.6 µM (inactive) | 46.1 µM (inactive) | 30.3 µM (inactive) | – | – | – | –
3 | O=C1CSC2(CC(/C=C/C=C/c3ccccc3)=NN2c2cccc(S(=O)(=O)O)c2)N1c1nc2ccccc2s1 (centres undefined) | – | > 100 µM (inactive) | 33.7 µM (inactive) | 4.24 µM (inactive) | – | 24.8 µM (inactive) | > 100 µM (inactive) | 20 µM (inactive) | 67.9 µM | 21.2 µM (inactive) | 34.8 µM (inactive) | 42.1 µM (inactive) | 64.3 µM (inactive) | 34.5 µM (inactive) | 40.2 µM (inactive) | 36.4 µM (inactive) | 31.3 µM (inactive) | 51.1 µM (inactive) | 21.6 µM (inactive) | –
4 | O=C(C#Cc1cnc(O)nc1O)c1ccccc1Cl | 14.2 µM (inactive) | 17.9 µM (inactive) | 19.5 µM (inactive) | 13.3 µM (inactive) | 20.7 µM (inactive) | 28.8 µM (inactive) | 3.07 µM (inactive) | 13.4 µM (inactive) | 15 µM | 23.9 µM (inactive) | 19.7 µM (inactive) | 15.2 µM (inactive) | 36.4 µM (inactive) | 21.6 µM (inactive) | 18 µM (inactive) | 52.6 µM (inactive) | – | – | – | –
5 | COC(=O)C(C(=O)C(=O)Nc1c(Cl)cc([N+](=O)[O-])cc1Cl)c1csc(-n2nc(C3=CCCCC3)cc2-c2ccccc2)n1 (centres undefined) | 59 µM (inactive) | – | – | 40 µM (inactive) | 71.8 µM (inactive) | 25.4 µM (inactive) | 63.7 µM (inactive) | 43.9 µM (inactive) | 36.2 µM | 27.9 µM (inactive) | 10.1 µM (inactive) | 61.7 µM (inactive) | 25.9 µM (inactive) | 64.9 µM (inactive) | 74 µM (inactive) | 37.3 µM (inactive) | – | – | – | –
6 | COC(=O)/C(=C1\OC(=O)C(c2ccc(Cl)cc2)=C1O)c1ccc(Cl)cc1 | 27.8 µM (inactive) | 31 µM (inactive) | 52 µM (inactive) | 7.6 µM (inactive) | 22.3 µM (inactive) | 21.8 µM (inactive) | 21.5 µM (inactive) | 21.3 µM (inactive) | – | 19.6 µM (inactive) | 17.8 µM (inactive) | 31.7 µM (inactive) | 30 µM (inactive) | 31 µM (inactive) | 36.1 µM (inactive) | 27.7 µM (inactive) | – | – | – | –
7 | CCN(C(=O)N[C@@H](Cc1ccccc1)C(=O)N[C@@H](CC(C)C)C(=O)OC)c1ccccc1 | 26.5 µM (inactive) | 17.5 µM (inactive) | 17 µM (inactive) | – | – | 19.5 µM (inactive) | 19.1 µM (inactive) | 13.8 µM (inactive) | 15.8 µM | 20.1 µM (inactive) | 22.2 µM (inactive) | 15.3 µM (inactive) | 14.3 µM (inactive) | 33 µM (inactive) | 19.8 µM (inactive) | 77.6 µM (inactive) | 55.7 µM (inactive) | 26.5 µM (inactive) | 51.6 µM (inactive) | –
8 | CC(=O)OCC1OC(n2cnc3c(I)nc(I)nc32)C(OC(C)=O)C1OC(C)=O (centres undefined) | 7.55 µM (inactive) | 14.9 µM (inactive) | 6.35 µM (inactive) | 2.47 µM (inactive) | 13.4 µM (inactive) | 19.4 µM (inactive) | 17.3 µM (inactive) | 14 µM (inactive) | 4.58 µM | 10.9 µM (inactive) | 3.18 µM (inactive) | 10.3 µM (inactive) | 6.4 µM (inactive) | 19.3 µM (inactive) | 14.3 µM (inactive) | 12.5 µM (inactive) | – | – | – | –
9 | N#CNC(=N)NC(=O)/C=C/C=C/c1ccc(Cl)cc1 | > 100 µM (inactive) | > 100 µM (inactive) | > 100 µM (inactive) | > 100 µM (inactive) | 52.7 µM (inactive) | > 100 µM (inactive) | 41.6 µM (inactive) | > 100 µM (inactive) | > 100 µM | > 100 µM (inactive) | > 100 µM (inactive) | 82.2 µM (inactive) | > 100 µM (inactive) | 94.2 µM (inactive) | 88.5 µM (inactive) | – | – | – | – | –
10 | CC(C)OC(=O)[C@@H](O)[C@H](CO)C1=CC([Si](C)(C)c2ccccc2)=CON1 | > 100 µM (inactive) | > 100 µM (inactive) | – | – | > 100 µM (inactive) | > 100 µM (inactive) | > 100 µM (inactive) | > 100 µM (inactive) | > 100 µM | > 100 µM (inactive) | – | > 100 µM (inactive) | > 100 µM (inactive) | > 100 µM (inactive) | > 100 µM (inactive) | > 100 µM (inactive) | > 100 µM (inactive) | > 100 µM (inactive) | > 100 µM (inactive) | –
11 | C=CCOC(=O)Cn1cc(C)c(=O)[nH]c1=O | – | > 100 µM (inactive) | > 100 µM (inactive) | > 100 µM (inactive) | > 100 µM (inactive) | > 100 µM (inactive) | – | > 100 µM (inactive) | > 100 µM | > 100 µM (inactive) | – | > 100 µM (inactive) | > 100 µM (inactive) | > 100 µM (inactive) | > 100 µM (inactive) | > 100 µM (inactive) | > 100 µM (inactive) | > 100 µM (inactive) | > 100 µM (inactive) | > 100 µM (inactive)
12 | COC(=O)C1CCC2(CC1)NC(=O)NC2=O (centres undefined) | > 100 µM (inactive) | > 100 µM (inactive) | > 100 µM (inactive) | > 100 µM (inactive) | > 100 µM (inactive) | > 100 µM (inactive) | > 100 µM (inactive) | > 100 µM (inactive) | – | > 100 µM (inactive) | > 100 µM (inactive) | > 100 µM (inactive) | > 100 µM (inactive) | > 100 µM (inactive) | > 100 µM (inactive) | > 100 µM (inactive) | – | – | – | –
13 | CNC(=S)/C(C#N)=C(\N)N1CCCC1 | > 100 µM (inactive) | > 100 µM (inactive) | > 100 µM (inactive) | > 100 µM (inactive) | > 100 µM (inactive) | > 100 µM (inactive) | > 100 µM (inactive) | – | > 100 µM | > 100 µM (inactive) | – | > 100 µM (inactive) | > 100 µM (inactive) | > 100 µM (inactive) | > 100 µM (inactive) | > 100 µM (inactive) | > 100 µM (inactive) | > 100 µM (inactive) | > 100 µM (inactive) | > 100 µM (inactive)
14 | CN(C)CCN(C)C(=O)c1cccc2cccc(C(=O)O)c12 | > 100 µM (inactive) | > 100 µM (inactive) | > 100 µM (inactive) | > 100 µM (inactive) | > 100 µM (inactive) | > 100 µM (inactive) | > 100 µM (inactive) | > 100 µM (inactive) | > 100 µM | > 100 µM (inactive) | > 100 µM (inactive) | > 100 µM (inactive) | > 100 µM (inactive) | > 100 µM (inactive) | > 100 µM (inactive) | > 100 µM (inactive) | – | – | – | –
15 | CC1(C)C2CC3C(C)(C2)C31c1cc(Cl)ccc1N (centres undefined) | 16.7 µM (inactive) | 17.3 µM (inactive) | 14.5 µM (inactive) | – | 13.8 µM (inactive) | 17.8 µM (inactive) | 10.3 µM (inactive) | 13.6 µM (inactive) | 10.9 µM | 13 µM (inactive) | 13.3 µM (inactive) | 15.1 µM (inactive) | 14.5 µM (inactive) | 15.5 µM (inactive) | 15.3 µM (inactive) | 18.9 µM (inactive) | 16.2 µM (inactive) | 14.7 µM (inactive) | 12.6 µM (inactive) | –
16 | CC1(C)C2C=CC1C(=O)CC2 (centres undefined) | > 100 µM (inactive) | > 100 µM (inactive) | – | > 100 µM (inactive) | > 100 µM (inactive) | > 100 µM (inactive) | > 100 µM (inactive) | > 100 µM (inactive) | > 100 µM | > 100 µM (inactive) | > 100 µM (inactive) | > 100 µM (inactive) | > 100 µM (inactive) | > 100 µM (inactive) | > 100 µM (inactive) | 15.9 µM (inactive) | – | – | – | –
17 | COc1cc(S(=O)(=O)Nc2ccc(-c3csc(N4C(=O)C(Cl)C4c4ccccc4)n3)cc2)ccc1Cl (centres undefined) | > 100 µM (inactive) | 66.5 µM (inactive) | 4.63 µM (inactive) | 54.6 µM (inactive) | 33.9 µM (inactive) | – | 10.7 µM (inactive) | 2.14 µM (inactive) | > 100 µM | 31.4 µM (inactive) | 18.2 µM (inactive) | 20.1 µM (inactive) | > 100 µM (inactive) | > 100 µM (inactive) | 19.2 µM (inactive) | > 100 µM (inactive) | – | > 100 µM (inactive) | 38.5 µM (inactive) | > 100 µM (inactive)

Source: ChEMBL document CHEMBL1201862, “PubChem BioAssay data set” (2004)
